Measurements reported in patent publication US20140323307A1, “MANAGEMENT METHOD AND MANAGEMENT SYSTEM FOR BIOMASS AT PLANT HARVEST” (Japan Science and Technology Agency, priority 2011, published 2014).

Test system: Arabidopsis thaliana
Conditions: linolenic acid-deficient, linolenic acid-excess and wild-type strains; 2 mM GSH or 1 mM GSSG aqueous solution, 25 mL per three individuals, once a week for 5 weeks; FIG. 9
Procedure: Each strain of Arabidopsis thaliana tested here was grown in the following manner: seeds of three individuals of each strain of Arabidopsis thaliana were sown in a pot, and grown from when the seeds were sown to when the individuals bore seeds (grown for about 2.5 to 3 months) under the controlled condition where light intensity was approximately 100 μE·m^−2·S^−1, the light and dark cycle was set to 16 hours and 8 hours, and the temperature was 22° C. […] Above-ground parts of the obtained Arabidopsis thaliana were harvested, and dried for five or more days in a dry house having a humidity of 5% and a temperature of 20° C. After they were thoroughly dried, the total biomass of above-ground parts at harvest (dry weight of the entire above-ground parts) and seed yield (dry weight of harvested seeds) for each pot were measured. As for the linolenic acid-deficient strain (triple mutant), only the total biomass of above-ground parts at harvest was measured.

N[C@@H](CCC(=O)N[C@@H](CS)C(=O)NCC(=O)O)C(=O)O [glutathione]
biomass at harvest (total biomass of above-ground parts, dry weight; seed yield) compared to the controls: significantly increased in biomass
